Source: patent US12099068B2, “Biomarkers for graft-versus-host disease” (Incyte Corporation, priority 2018, dated 2024)
Values joined by “and” are separate entries in the source; they are usually repeats but may differ in a detail not shown here. Identical values can stand only once. Where no end group is shown, it is not given here.

System: plasma proteins
Experiment: Proteins of Table 11 stably expressed in complete responders between days 1 and 28, Example 5 (Table 12)
Type: in vivo, human
Settings: between baseline (Day 1) and Day 28
Method: (§1) Due to the limited sample size, steroid-naive (N=10) and steroid-refractory (N=18) patients were combined for further analysis. Broad proteomic analysis of over 1000 proteins was conducted by OLINK Proteomics (Watertown, MA) using a proximity extension assay as described by the manufacturer. Data are presented as normalized protein expression (NPX) in log 2 scale. Statistical differences were evaluated using unpaired and paired t tests, one-way […] (ANOVA), and Pearson Correlation. Significance was conferred when P<0.05.

For `N#CCC1(n2cc(-c3ncnc4[nH]ccc34)cn2)CN(C2CCN(C(=O)c3ccnc(C(F)(F)F)c3F)CC2)C1` [itacitinib, {1-{1-[3-Fluoro-2-(trifluoromethyl)isonicotinoyl]piperidin-4-yl}-3-[4-(7H-pyrrolo[2,3-d]pyrimidin-4-yl)-1H-pyrazol-1-yl]azetidin-3-yl}acetonitrile], the “proteins from Table 11 that did not modulate in complete responders” value was 89.

System: plasma proteins
Experiment: Plasma proteins modulated between baseline and day 28 in responders (CR, VGPR, PR; n = 19), Example 6 (Table 13)
Type: in vivo, human
Settings: plasma protein (OLINK NPX); responders (CR, VGPR, PR; n = 19); itacitinib 200 mg or 300 mg QD with corticosteroids; day 28 vs baseline
Method: as §1
Longitudinal differences in protein expression were analyzed by evaluating plasma samples from baseline/screening and day 28.

Going from ADGRG1 to ANXA11, the “Fold Change, Decreased Expression from Baseline to Day 28” value (“Fold Change, Decreased Expression” below) falls from −1.1823 to −1.3456.

First: APP
Second: ARHGEF12
The “Fold Change, Decreased Expression” value of the first is higher: −1.5208 for the first, −1.8347 for the second.

Compared with ARSB, AXIN1 is lower in “Fold Change, Decreased Expression” value: −1.3432 for the first, −1.8046 for the second.

Compared with CA13, CBL is higher in “Fold Change, Decreased Expression” value: −1.8816 for the first, −1.7183 for the second.

Compared with CD27, CD38 is higher in “Fold Change, Decreased Expression” value: −1.6873 for the first, −1.4181 for the second.

First: CLEC1B
Second: COL4A1
The “Fold Change, Decreased Expression” value of the first is lower: −1.7033 for the first, −1.2699 for the second.

First: CXCL5
Second: DECR1
The “Fold Change, Decreased Expression” value of the first is lower: −1.7254 for the first, −1.4327 for the second.

Compared with DEFA1, DKN1A is higher in “Fold Change, Decreased Expression” value: −1.9173 for the first, −1.4302 for the second.

First: DNAJB1
Second: DSC2
The “Fold Change, Decreased Expression” value of the first is lower: −1.7332 for the first, −1.3652 for the second.

First: EIF4G1
Second: FGR
The “Fold Change, Decreased Expression” value of the first is lower: −1.5969 for the first, −1.4406 for the second.

Going from FKBP1B to HAVCR2, the “Fold Change, Decreased Expression” value rises from −1.9994 to −1.312.

First: HDGF
Second: HGF
The “Fold Change, Decreased Expression” value of the first is higher: −1.3392 for the first, −1.5542 for the second.

Going from IQGAP2 to ITGB2, the “Fold Change, Decreased Expression” value falls from −1.5317 to −1.6877.

Compared with LILRA5, LY75 is higher in “Fold Change, Decreased Expression” value: −1.342 for the first, −1.1401 for the second.

Going from MAP4K5 to MAX, the “Fold Change, Decreased Expression” value rises from −1.658 to −1.449.

Going from MMP-1 to NCR1, the “Fold Change, Decreased Expression” value rises from −1.4112 to −1.3726.

Compared with NEMO, NMNAT1 is higher in “Fold Change, Decreased Expression” value: −1.7984 for the first, −1.4212 for the second.

Going from NRP1 to PAPPA, the “Fold Change, Decreased Expression” value falls from −1.1237 to −1.3491.

Compared with PDGF subunit A, PECAM-1 is higher in “Fold Change, Decreased Expression” value: −1.6021 for the first, −1.2009 for the second.

Going from PLXNA4 to PPP1R9B, the “Fold Change, Decreased Expression” value falls from −1.405 to −1.6445.

First: PTX3
Second: PXN
The “Fold Change, Decreased Expression” value of the first is lower: −1.5567 for the first, −1.329 for the second.

Going from SIGLEC1 to STIP1, the “Fold Change, Decreased Expression” value rises from −1.3842 to −1.2812.

First: Siglec-9
Second: THBS4
The “Fold Change, Decreased Expression” value of the first is higher: −1.1514 for the first, −1.7307 for the second.

First: TIMP1
Second: TNC
The “Fold Change, Decreased Expression” value of the first is higher: −1.2337 for the first, −1.6915 for the second.

First: TNXB
Second: TOP2B
The “Fold Change, Decreased Expression” value of the first is higher: −1.156 for the first, −1.7634 for the second.

Going from TPSAB1 to TRIM5, the “Fold Change, Decreased Expression” value rises from −1.9835 to −1.4743.

Compared with TXNDC5, VSIG4 is lower in “Fold Change, Decreased Expression” value: −1.4081 for the first, −1.5046 for the second.

YES1 was tested, and the “Fold Change, Decreased Expression” value was −1.9824.

Going from ADM to ERBB2, the “Fold Change, Increased Expression from Baseline to Day 28” value (“Fold Change, Increased Expression” below) falls from 1.2035 to 1.1968.

Going from EZR to FABP2, the “Fold Change, Increased Expression” value rises from 1.1031 to 3.5893.

Going from FURIN to “GAL (GWTLNSAGYLLGPHAVGNHRSFSDKNGLTS; Galanin; UniProt P22466 33-62, looked up)”, the “Fold Change, Increased Expression” value rises from 1.2365 to 1.6888.

Going from GCG to Gal-3, the “Fold Change, Increased Expression” value falls from 1.8922 to 1.3504.

Compared with IGF1R, IGF2R is lower in “Fold Change, Increased Expression” value: 1.2432 for the first, 1.1734 for the second.

Going from LTBP2 to METRNL, the “Fold Change, Increased Expression” value rises from 1.1874 to 1.2013.

First: MMP7
Second: MUC-16
The “Fold Change, Increased Expression” value of the first is lower: 1.3986 for the first, 1.6356 for the second.

Compared with NCAM1, NTRK2 is lower in “Fold Change, Increased Expression” value: 1.3216 for the first, 1.118 for the second.

First: NTRK3
Second: PIgR
The “Fold Change, Increased Expression” value of the first is higher: 1.2526 for the first, 1.1476 for the second.

Going from “PPY (APLEPVYPGDNATPEQMAQYAADLRRYINMLTRPRY; ends and bridges not checked; UniProt P01298 30-65, looked up)” to SCARA5, the “Fold Change, Increased Expression” value falls from 1.9703 to 1.1342.

Going from THBS2 to THPO, the “Fold Change, Increased Expression” value rises from 1.0963 to 1.867.

For CCL11, the “Fold Change, Increased Expression” value was 1.2818 and 1.3146.
IL6 was tested, and the “Fold Change, Increased Expression” value was 2.0047 and 1.8649 and 1.7278.
With MCP-1 the “Fold Change, Increased Expression” value was 1.6302 and 1.4322.
For SCF, the “Fold Change, Increased Expression” value was 1.4714 and 1.3943 and 1.4058.

Same assay, conditions: responders (CR, VGPR, PR; N=19); baseline to day 28

`N#CCC1(n2cc(-c3ncnc4[nH]ccc34)cn2)CN(C2CCN(C(=O)c3ccnc(C(F)(F)F)c3F)CC2)C1` [itacitinib, {1-{1-[3-Fluoro-2-(trifluoromethyl)isonicotinoyl]piperidin-4-yl}-3-[4-(7H-pyrrolo[2,3-d]pyrimidin-4-yl)-1H-pyrazol-1-yl]azetidin-3-yl}acetonitrile] gave a proteins significantly elevated of 105.

Molecule `N#CCC1(n2cc(-c3ncnc4[nH]ccc34)cn2)CN(C2CCN(C(=O)c3ccnc(C(F)(F)F)c3F)CC2)C1` [itacitinib, {1-{1-[3-Fluoro-2-(trifluoromethyl)isonicotinoyl]piperidin-4-yl}-3-[4-(7H-pyrrolo[2,3-d]pyrimidin-4-yl)-1H-pyrazol-1-yl]azetidin-3-yl}acetonitrile] has a proteins significantly reduced of 248.

With `N#CCC1(n2cc(-c3ncnc4[nH]ccc34)cn2)CN(C2CCN(C(=O)c3ccnc(C(F)(F)F)c3F)CC2)C1` [itacitinib, {1-{1-[3-Fluoro-2-(trifluoromethyl)isonicotinoyl]piperidin-4-yl}-3-[4-(7H-pyrrolo[2,3-d]pyrimidin-4-yl)-1H-pyrazol-1-yl]azetidin-3-yl}acetonitrile] the “total proteins significantly modulated by treatment” value was 353.

System: subjects with aGvHD
Experiment: Parallel-cohort phase 1 trial, clinical response by CIBMTR response criteria at day 28
Type: in vivo, human
Settings: 200 mg vs 300 mg once daily (QD) + corticosteroids
Description: A broad proteomic analysis identified predictive, prognostic, and pharmacodynamic biomarkers of response to the combination treatment.
Ten steroid-naive and eighteen steroid-refractory subjects with aGvHD were enrolled in the clinical trial. Plasma samples were collected from all 28 subjects prior to treatment (screening/baseline) and at day 28 following treatment. All subjects provided written consent prior to enrollment and sample collection. Based on the Center for International Blood and Marrow Transplant Research (CIBMTR) response criteria at day 28, subjects were separated into responders and non-responders. Responders included complete responders (CR; n=10), very good partial responders (VGPR; n=1), and partial responders (PR; n=8). Non-responders included mixed responders (n=2) and progressive disease/death (PD/Death; n=7).
as §1

`N#CCC1(n2cc(-c3ncnc4[nH]ccc34)cn2)CN(C2CCN(C(=O)c3ccnc(C(F)(F)F)c3F)CC2)C1` [itacitinib, {1-{1-[3-Fluoro-2-(trifluoromethyl)isonicotinoyl]piperidin-4-yl}-3-[4-(7H-pyrrolo[2,3-d]pyrimidin-4-yl)-1H-pyrazol-1-yl]azetidin-3-yl}acetonitrile] was tested, and the “Clinical response between the two itacitinib doses” value was “not significantly different”.

Same assay, conditions: combination with corticosteroids; steroid naïve and refractory aGvHD patients

With `N#CCC1(n2cc(-c3ncnc4[nH]ccc34)cn2)CN(C2CCN(C(=O)c3ccnc(C(F)(F)F)c3F)CC2)C1` [itacitinib, {1-{1-[3-Fluoro-2-(trifluoromethyl)isonicotinoyl]piperidin-4-yl}-3-[4-(7H-pyrrolo[2,3-d]pyrimidin-4-yl)-1H-pyrazol-1-yl]azetidin-3-yl}acetonitrile] the overall responses was “improved overall responses”.
